Literature values in patent US20120040895A1, “PEPTIDE AVAILABILITY” (priority 2008, published 2012).

Further increase of AUC when consumed with the meal (yoghurt drink consumed with breakfast, versus fasted state): 30% | Increase of plasma IPP level (area under the concentration vs. time curve) compared to a control drink (yoghurt drink drunk in overnight fasted state 30 min prior to breakfast): more than two-fold
Compound: CC[C@H](C)[C@H](N)C(=O)N1CCC[C@H]1C(=O)N1CCC[C@H]1C(=O)O [IPP, Isoleucine-Proline-Proline]
